Test results taken from PubChem BioAssay AID192 (DTP/NCI, 2004).
Several values for one entry are separate records, joined by “and”; a condition that tells them apart may be missing. Equal entries are not always repeated. Toxic doses and inconclusive results are not listed.

Tested on: BDF1 mice, B16 melanoma ip, median survival T/C
Assay: NCI In Vivo Anticancer Drug Screen. Data for tumor model B16 Melanoma (intraperitoneal) in B6D2F1 (BDF1) mice
Settings: endpoint: median survival time, higher = longer survival
Procedure, shortened: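 Values are ratios of treated (T) to vehicle-control (C) measurements of survival or tumor size in tumor-bearing mice.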

[1] = dose: 6.25 mg/kg/injection, schedule: Q01DX009 (ip), vehicle: saline with Tween-80
[2] = dose: 12.5 mg/kg/injection, schedule: Q01DX009 (ip), vehicle: saline with Tween-80
[3] = dose: 25.0 mg/kg/injection, schedule: Q01DX009 (ip), vehicle: saline with Tween-80
[4] = dose: 50.0 mg/kg/injection, schedule: Q01DX009 (ip), vehicle: saline with Tween-80
[5] = dose: 100.0 mg/kg/injection, schedule: Q01DX009 (ip), vehicle: saline with Tween-80
[6] = dose: 50.0 mg/kg/injection, schedule: Q01DX009 (ip), vehicle: Klucel (hydroxypropylcellulose) (HPC)
[7] = dose: 100.0 mg/kg/injection, schedule: Q01DX009 (ip), vehicle: Klucel (hydroxypropylcellulose) (HPC)
[8] = dose: 200.0 mg/kg/injection, schedule: Q01DX009 (ip), vehicle: Klucel (hydroxypropylcellulose) (HPC)
[9] = dose: 50.0 mg/kg/injection, schedule: Q01DX009 (ip), vehicle: water
[10] = dose: 100.0 mg/kg/injection, schedule: Q01DX009 (ip), vehicle: water

Question: What does the source list for `O=C(O[Si](Cc1ccccc1)(Cc1ccccc1)Cc1ccccc1)N(CCCl)CCCl`?
Answer: T/C [1]: 100 % of control; T/C [2]: 112 % of control; T/C [3]: 104 % of control; T/C [4]: 108 % of control

Question: What does the source list for `Cc1ccccc1N(CC1CO1)CC1CO1` (stereo not drawn)?
Answer: T/C [4]: 152 % of control; T/C [5]: 180 % of control

Question: For `O=C(O)c1ccc2c([N+](=O)[O-])cccc2n1`, which T/C [6] is on record?
Answer: 112 % of control

Question: And the T/C [7]?
Answer: 112 % of control

Question: Which results are given for `O=C(O)C(Cc1cc(I)c(O)c(I)c1)c1ccccc1` (stereo not drawn)?
Answer: T/C [6]: 100 % of control; T/C [7]: 109 % of control; T/C [8]: 100 % of control

Question: With `O=c1cc(-c2ccccc2)nc(Nc2nc3ccc([N+](=O)[O-])cc3[nH]2)[nH]1` as the compound, how does the T/C (dose: 25.0 mg/kg/injection, schedule: Q01DX009 (ip), vehicle: Klucel (hydroxypropylcellulose) (HPC)) read?
Answer: 102 % of control

Question: What about the T/C [6] of the same compound?
Answer: 90 % of control

Question: What about the T/C [7] of the same compound?
Answer: 98 % of control and 103 % of control

Question: What does the source list for `O=C(O)CSc1nc(-c2ccccc2)c(-c2ccccc2)n1-c1ccccn1`?
Answer: T/C (dose: 12.5 mg/kg/injection, schedule: Q01DX009 (ip), vehicle: water): 98 % of control; T/C (dose: 25.0 mg/kg/injection, schedule: Q01DX009 (ip), vehicle: water): 97 % of control; T/C [9]: 98 % of control; T/C [10]: 98 % of control

Question: Which T/C [6] does the source give for `O=C1C=CC(=O)N1c1ccc2c(c1)oc(=O)c1ccccc12` here?
Answer: 87 % of control

Question: What does the source list for `CCN(CC)CCOc1ccc(Br)cc1`?
Answer: T/C (dose: 12.5 mg/kg/injection, schedule: Q01DX009 (ip), vehicle: Klucel (hydroxypropylcellulose) (HPC)): 96 % of control; T/C [6]: 87 % of control and 98 % of control

Question: What does the source list for `O=C(NCCN1CC1)C(=O)NCCN1CC1`?
Answer: T/C (dose: 1.5 mg/kg/injection, schedule: Q01DX009 (ip), vehicle: saline with Tween-80): 153 % of control; T/C (dose: 3.12 mg/kg/injection, schedule: Q04DX003 (ip), vehicle: saline with Tween-80): 178 % of control; T/C (dose: 6.25 mg/kg/injection, schedule: Q04DX003 (ip), vehicle: saline with Tween-80): 168 % of control

Question: For `CN(C)NCCC#N`, which T/C (dose: 33.0 mg/kg/injection, schedule: Q01DX009 (ip), vehicle: saline) is on record?
Answer: 101 % of control

Question: And the T/C (dose: 50.0 mg/kg/injection, schedule: Q01DX009 (ip), vehicle: saline)?
Answer: 104 % of control

Question: And the T/C (dose: 75.0 mg/kg/injection, schedule: Q01DX009 (ip), vehicle: saline)?
Answer: 104 % of control and 206 % of control

Question: What about the T/C (dose: 113.0 mg/kg/injection, schedule: Q01DX009 (ip), vehicle: saline) of the same compound?
Answer: 100 % of control

Question: Which T/C (dose: 18.75 mg/kg/injection, schedule: Q04DX002 (ip), vehicle: Klucel (hydroxypropylcellulose) (HPC)) does the source give for `CN(/N=N/c1nc[nH]c1C(N)=O)C(C)(C)C` here?
Answer: 101 % of control

Question: And the T/C (dose: 37.5 mg/kg/injection, schedule: Q04DX002 (ip), vehicle: Klucel (hydroxypropylcellulose) (HPC))?
Answer: 107 % of control

Question: What about the T/C (dose: 75.0 mg/kg/injection, schedule: Q04DX002 (ip), vehicle: Klucel (hydroxypropylcellulose) (HPC)) of the same compound?
Answer: 98 % of control

Question: What about the T/C [7] of the same compound?
Answer: 95 % of control

Question: What about the T/C (dose: 150.0 mg/kg/injection, schedule: Q04DX002 (ip), vehicle: Klucel (hydroxypropylcellulose) (HPC)) of the same compound?
Answer: 101 % of control

Question: What about the T/C [8] of the same compound?
Answer: 90 % of control

Question: What about the T/C (dose: 300.0 mg/kg/injection, schedule: Q04DX002 (ip), vehicle: Klucel (hydroxypropylcellulose) (HPC)) of the same compound?
Answer: 93 % of control

Question: What about the T/C (dose: 400.0 mg/kg/injection, schedule: Q01DX009 (ip), vehicle: Klucel (hydroxypropylcellulose) (HPC)) of the same compound?
Answer: 104 % of control

Question: What does the source list for `CN(C)CCCNc1cc(O)c2c(c1O)C(=O)c1ccccc1C2=O`?
Answer: T/C [9]: 116 % of control; T/C [10]: 107 % of control

Question: What does the source list for `CC1COS(=O)O1` (stereo not drawn)?
Answer: T/C (dose: 10.0 mg/kg/injection, schedule: Q01DX009 (ip), vehicle: saline sonified): 102 % of control; T/C (dose: 20.0 mg/kg/injection, schedule: Q01DX009 (ip), vehicle: saline sonified): 100 % of control; T/C (dose: 40.0 mg/kg/injection, schedule: Q01DX009 (ip), vehicle: saline sonified): 102 % of control

Question: Which results are given for `CCCCCCCC(=O)Nc1ccc(C)cc1`?
Answer: T/C (dose: 50.0 mg/kg/injection, schedule: Q04DX003 (ip), vehicle: Klucel (hydroxypropylcellulose) (HPC)): 89 % of control; T/C (dose: 100.0 mg/kg/injection, schedule: Q04DX003 (ip), vehicle: Klucel (hydroxypropylcellulose) (HPC)): 91 % of control

Question: `OC1COCOC1` (tested in a mixture with another compound) was tested. Which T/C (dose: 100.0 mg/kg/injection, schedule: Q01DX009 (ip), vehicle: saline) did it give?
Answer: 115 % of control

Question: What about the T/C (dose: 200.0 mg/kg/injection, schedule: Q01DX009 (ip), vehicle: saline) of the same compound?
Answer: 106 % of control

Question: And the T/C (dose: 400.0 mg/kg/injection, schedule: Q01DX009 (ip), vehicle: saline)?
Answer: 106 % of control

Question: Which results are given for `Cc1cc(C(=O)NNC(C)Cc2ccccc2)no1` (stereo not drawn)?
Answer: T/C (dose: 4.6 mg/kg/injection, schedule: Q01DX009 (ip), vehicle: saline): 95 % of control; T/C (dose: 9.3 mg/kg/injection, schedule: Q01DX009 (ip), vehicle: saline): 100 % of control; T/C (dose: 18.75 mg/kg/injection, schedule: Q01DX009 (ip), vehicle: saline): 102 % of control; T/C (dose: 37.5 mg/kg/injection, schedule: Q01DX009 (ip), vehicle: saline): 120 % of control

Question: What does the source list for `COc1cc([C@@H]2c3cc4c(c(O)c3C[C@H]3COC(=O)[C@@H]32)OCO4)cc(OC)c1O`?
Answer: T/C (dose: 0.12 mg/kg/injection, schedule: Q01DX009 (ip), vehicle: saline): 97 % of control; T/C (dose: 0.12 mg/kg/injection, schedule: Q01DX009 (ip), vehicle: suspension in saline): 100 % of control; T/C (dose: 0.25 mg/kg/injection, schedule: Q01DX009 (ip), vehicle: saline): 97 % of control; T/C (dose: 0.25 mg/kg/injection, schedule: Q01DX009 (ip), vehicle: suspension in saline): 96 % of control; T/C (dose: 0.5 mg/kg/injection, schedule: Q01DX009 (ip), vehicle: saline): 107 % of control; T/C (dose: 0.5 mg/kg/injection, schedule: Q01DX009 (ip), vehicle: suspension in saline): 105 % of control; T/C (dose: 1.0 mg/kg/injection, schedule: Q01DX009 (ip), vehicle: saline): 95 % of control

Question: For `C[Si](C)(C)O/C=C1\CCCCC1=O`, which T/C [1] is on record?
Answer: 96 % of control

Question: What about the T/C [2] of the same compound?
Answer: 99 % of control

Question: What about the T/C [3] of the same compound?
Answer: 92 % of control

Question: What about the T/C [4] of the same compound?
Answer: 94 % of control

Question: What about the T/C [5] of the same compound?
Answer: 88 % of control

Question: And the T/C (dose: 200.0 mg/kg/injection, schedule: Q01DX009 (ip), vehicle: saline with Tween-80)?
Answer: 94 % of control
